Measured values as given in PMC11589570, “Critical assessment of LC3/GABARAP ligands used for degrader development and ligandability of LC3/GABARAP binding pockets” (Nature Communications, 2024).
Where two headings read alike, the source gives them in different places.

Biological target: LC3B (Homo sapiens, UniProt Q9GZQ8)
Conditions: LC3B:ligand molar ratio 1:2

Structure (SMILES): Cc1ccc(C(=O)N(CCCN)[C@@H](c2nc3cc(Cl)ccc3c(=O)n2Cc2ccccc2)C(C)C)cc1 [compound 3, (R)-N-(3-aminopropyl)-N-(1-(3-benzyl-7-chloro-4-oxo-3,4-dihydroquinazolin-2-yl)−2-methylpropyl)−4-methylbenzamide]
- CSP (LC3B residue A75): 0.00171 ppm
- CSP (LC3B residue A78): 0.000906 ppm
- CSP (LC3B residue A114): 0.00141 ppm
- CSP (LC3B residue D19): 0.000707 ppm
- CSP (LC3B residue D48): 0.010 ppm
- CSP (LC3B residue D56): 0.00434 ppm
- CSP (LC3B residue D104): 0.002 ppm
- CSP (LC3B residue D106): 0.005 ppm
- CSP (LC3B residue E14): 0.00152 ppm
- CSP (LC3B residue E18): 0.003 ppm
- CSP (LC3B residue E25): 0.00212 ppm
- CSP (LC3B residue E36): 0.00158 ppm
- CSP (LC3B residue E41): 0.0011 ppm
- CSP (LC3B residue E62): 0.00213 ppm
- CSP (LC3B residue E97): 0.005 ppm
- CSP (LC3B residue E100): 0.004 ppm
- CSP (LC3B residue E102): 0.000721 ppm
- CSP (LC3B residue E105): 0.00232 ppm
- CSP (LC3B residue E117): 0.00224 ppm
- CSP (LC3B residue F07): 0.00141 ppm
- CSP (LC3B residue F13): 0.000721 ppm
- CSP (LC3B residue F52): 0.011 ppm
- CSP (LC3B residue F108): 0.006 ppm
- CSP (LC3B residue F119): 0.00255 ppm
- CSP (LC3B residue G40, estimated): 0.002 ppm
- CSP (LC3B residue G107): 0.002 ppm
- CSP (LC3B residue H27): 0.00453 ppm
- CSP (LC3B residue H57): 0.00237 ppm
- CSP (LC3B residue I23): 0.00158 ppm
- CSP (LC3B residue I31): 0.00281 ppm
- CSP (LC3B residue I34): 0.00571 ppm
- CSP (LC3B residue I35): 0.00158 ppm
- CSP (LC3B residue I64): 0.00474 ppm
- CSP (LC3B residue I66): 0.000721 ppm
- CSP (LC3B residue I67): 0.003 ppm
- CSP (LC3B residue K08): 0.00364 ppm
- CSP (LC3B residue K30): 0.000762 ppm
- CSP (LC3B residue K39): 0.00212 ppm
- CSP (LC3B residue K42): 0.00255 ppm
- CSP (LC3B residue K49): 0.00665 ppm
- CSP (LC3B residue K51): 0.00356 ppm
- CSP (LC3B residue K65): 0.00216 ppm
- CSP (LC3B residue K103): 0.00165 ppm
- CSP (LC3B residue L22): 0.002 ppm
- CSP (LC3B residue L44): 0.006 ppm
- CSP (LC3B residue L47): 0.009 ppm
- CSP (LC3B residue L53): 0.007 ppm
- CSP (LC3B residue L63): 0.004 ppm
- CSP (LC3B residue L71): 0.000566 ppm
- CSP (LC3B residue L73): 0.000849 ppm
- CSP (LC3B residue L109): 0.00144 ppm
- CSP (LC3B residue M01, estimated): 0.002 ppm
- CSP (LC3B residue M60): 0.00216 ppm
- CSP (LC3B residue M111): 0.00255 ppm
- CSP (LC3B residue N59): 0.009 ppm
- CSP (LC3B residue N74): 0.00173 ppm
- CSP (LC3B residue N76): 0.00171 ppm
- CSP (LC3B residue P02, estimated): 0.002 ppm
- CSP (LC3B residue P28, estimated): 0.005 ppm
- CSP (LC3B residue P32, estimated): 0.003 ppm
- CSP (LC3B residue P45, estimated): 0.005 ppm
- CSP (LC3B residue P55, estimated): 0.006 ppm
- CSP (LC3B residue Q09): 0.00173 ppm
- CSP (LC3B residue Q15): 0.00158 ppm
- CSP (LC3B residue Q26): 0.003 ppm
- CSP (LC3B residue Q43): 0.00158 ppm
- CSP (LC3B residue Q72): 0.00243 ppm
- CSP (LC3B residue Q77): 0.0011 ppm
- CSP (LC3B residue Q116): 0.00181 ppm
- CSP (LC3B residue R10): 0.00165 ppm
- CSP (LC3B residue R11): 0.0024 ppm
- CSP (LC3B residue R16): 0.00181 ppm
- CSP (LC3B residue R21): 0.002 ppm
- CSP (LC3B residue R24): 0.000424 ppm
- CSP (LC3B residue R37): 0.00181 ppm
- CSP (LC3B residue R68): 0.00643 ppm
- CSP (LC3B residue R69): 0.00362 ppm
- CSP (LC3B residue R70): 0.00566 ppm
- CSP (LC3B residue S03, estimated): 0.002 ppm
- CSP (LC3B residue S61): 0.00376 ppm
- CSP (LC3B residue S96): 0.004 ppm
- CSP (LC3B residue S101): 0.00148 ppm
- CSP (LC3B residue S115): 0.00122 ppm
- CSP (LC3B residue T06): 0.00255 ppm
- CSP (LC3B residue T12): 0.006 ppm
- CSP (LC3B residue T29, estimated): 0.002 ppm
- CSP (LC3B residue T50): 0.008 ppm
- CSP (LC3B residue T118): 0.00152 ppm
- CSP (LC3B residue V17): 0.0011 ppm
- CSP (LC3B residue V20): 0.00281 ppm
- CSP (LC3B residue V33): 0.00472 ppm
- CSP (LC3B residue V46): 0.00449 ppm
- CSP (LC3B residue V54): 0.009 ppm
- CSP (LC3B residue V58): 0.00542 ppm
- CSP (LC3B residue V98): 0.00173 ppm
- CSP (LC3B residue V112): 0.00638 ppm
- CSP (LC3B residue Y38): 0.00165 ppm
- CSP (LC3B residue Y99): 0.00144 ppm
- CSP (LC3B residue Y110): 0.00214 ppm
- CSP (LC3B residue Y113): 0.00232 ppm
